Key:
SARS-CoV-2 [1] = assay: Plaque reduction assay; assay type: cell-based, SARS-CoV-2/NL/2020 strain; conditions: ratio between CC50 and EC50; SARS-CoV-2, Vero E6 cells
SARS-CoV-2 M^pro = SARS-CoV-2 M^pro (Severe acute respiratory syndrome coronavirus 2, UniProt P0DTD1); assay: FRET-based SARS-CoV-2 M^pro activity assay in vitro; assay type: biochemical; conditions: for Inhibitory effect on M^pro catalytic activity at fixed concentration: 100 μM, cut-off 50% of inhibition
[2] = MTT cell viability assay in Vero E6 cells; assay type: cell-based; conditions: African green monkey
HCoV-229E = assay: microbe, parasite or virus in culture; assay type: cell-based; conditions: for EC50: Human coronavirus 229E, MRC5, 144 h, read-out: HCoV-229E EC50
HCoV-OC43 = assay: Plaque reduction assay against HCoV-OC43 in MRC-5 cells; assay type: cell-based; conditions: infected MRC-5 cells
[3] = MTT cell viability assay in MRC-5 cells; assay type: cell-based; conditions: human
SARS-CoV-2 [4] = assay: Virus yield reduction assay of SARS-CoV-2 in Calu-3 cells; assay type: cell-based; conditions: MOI 0.01, 36 h p.i., titration on Vero E6

Structure (SMILES) | SI, Selectivity Index (SARS-CoV-2 [1]) | Inhibitory effect on M^pro catalytic activity at fixed concentration (SARS-CoV-2 M^pro) | CC50 at 72 h [2] | further results
CCOc1ccc(NC(=O)C(=O)NCCc2csc3nc(-c4cccs4)nn23)cc1 [Compound 1] | >10 | exerted an inhibitory effect | > 500 µM | IC50 (SARS-CoV-2 M^pro): 142 ± 12 µM
CC(NC(=O)C(=O)NCCN1CCOCC1)C(c1cccs1)N1CCN(c2ccccc2)CC1 (centres unmarked) [Compound 2] | >10 |  | > 500 µM | 
CCOc1ccccc1NC(=O)C(=O)NCC(c1cccnc1)N1CCN(c2ccccc2)CC1 (centres unmarked) [Compound 3] | >40 | not a significant inhibitory effect | > 500 µM | Activity towards HCoV-229E (HCoV-229E): retained activity; EC50 (HCoV-229E): 34.6 ± 8.5 µM; Activity towards HCoV-OC43 (HCoV-OC43): retained activity; CC50 at 72 h [3]: > 500 µM
O=C(NCc1ccc(F)cc1)C(=O)NCC(c1cccnc1)N1CCN(c2ccccc2)CC1 (centres unmarked) [Compound 4] | >24 | not a significant inhibitory effect | > 500 µM | Activity towards HCoV-229E (HCoV-229E): retained activity; EC50 (HCoV-229E): 23.8 ± 9.9 µM; Activity towards HCoV-OC43 (HCoV-OC43): retained activity; CC50 at 72 h [3]: 300 ± 18 µM
CCC(C)C(NC(=O)C1N2C(=O)c3ccccc3C2SC1(C)C)C(=O)NC(CO)C(C)C (centres unmarked) [Compound 6] |  | not a significant inhibitory effect | > 500 µM | Activity towards HCoV-229E (HCoV-229E): retained activity; EC50 (HCoV-229E): 22.9 ± 4.9 µM; IC50 (SARS-CoV-2 M^pro): > 100 µM; SARS-CoV-2 titers in supernatants of infected and treated Calu-3 cells (SARS-CoV-2 [4]): significantly reduced SARS-CoV-2 titers; Activity towards HCoV-OC43 (HCoV-OC43): retained activity; CC50 at 72 h [3]: > 500 µM
COc1ccc(C(=O)Nc2ccccc2C(=O)NC(C(=O)Nc2ccccc2)C(C)C)cc1 (centres unmarked) [Compound 7] | >10 | exerted an inhibitory effect | > 500 µM | IC50 (SARS-CoV-2 M^pro): 111 ± 2.2 µM
CCOC(=O)C(NC(=O)COc1ccccc1)(Nc1nc2ccccc2s1)C(F)(F)F (centres unmarked) [Compound 8] | 3 |  | 68.8 ± 15.4 µM | 
O=C(Nc1ccccc1C(=O)NCc1ccccc1)c1cc(S(=O)(=O)N2CCOCC2)ccc1F [Compound 9] | >10 |  | > 500 µM | 
O=C(CCC(=O)NNC(=O)C(c1ccccc1)c1ccccc1)NCc1ccccc1 [Compound 10] | >10 | exerted an inhibitory effect | > 500 µM | IC50 (SARS-CoV-2 M^pro): 128 ± 18.8 µM
CC(=O)NCC(=O)NC1(C(=O)NC(c2ccccc2)c2ccccc2)CCCCC1 [Compound 11] | >10 |  | > 500 µM | 
O=C(NC(Cc1ccccc1)C(=O)NCc1ccccn1)OCc1ccccc1 (centres unmarked) [Compound 12] | 21 | not a significant inhibitory effect | 428 ± 11 µM | 
COc1ccc(NC2=NC(=O)CC(C(=O)NCc3ccccc3)N2)cc1 (centres unmarked) [Compound 13] | >10 |  | > 500 µM | 
CCN1CCN(C(C(=O)O)c2c[nH]c3ccc(NC(=O)CCC(=O)O)cc23)CC1 (centres unmarked) [Compound 14] | >10 |  | > 500 µM | 
CCOC(=O)C1=C(CN2CCCN(C(=O)OC(C)(C)C)CC2)NC(=O)NC1c1ccc(C)cc1 (centres unmarked) [Compound 15] | 8 |  | 113 ± 3 µM | 
COC(=O)C1=C(CN2CCN(C(=O)OC(C)(C)C)CC2)NC(=O)NC1c1ccccc1 (centres unmarked) [Compound 16] | 10 |  | 401 ± 52 µM | 
CCOC(=O)C1=C(CN2CCC(NC(=O)OC(C)(C)C)CC2)NC(=O)NC1c1ccccc1 (centres unmarked) [Compound 17] | >5 |  | 228 ± 6 µM | 
COc1ccc(C(=O)COC(=O)C(Cc2ccccc2)N2C(=O)C3C4C=CC(C4)C3C2=O)cc1 (centres unmarked) [Compound 18] | >10 |  | > 500 µM | 

Structure (SMILES) | SI, Selectivity Index (SARS-CoV-2 [1]) | Inhibitory effect on M^pro catalytic activity at fixed concentration (SARS-CoV-2 M^pro) | CC50 at 72 h [2] | further results
CCc1cc(Br)cc2c(C(=O)N3CCOCC3)cc(-c3ccc(OC)cc3)nc12 [Compound 19] | 32 | not a significant inhibitory effect | 228 ± 69 µM | 
COc1ccc(C(=O)CN(C(=O)c2ccc(Cl)cc2)N2C(=O)CCC2=O)cc1 [Compound 20] | >10 |  | > 500 µM | 
COc1ccc2c(c1)c(CC(=O)O)c(C)n2C(=O)c1ccc(Cl)cc1 [Compound 21] | >10 |  | > 500 µM | 
Nc1ncnc2c1ncn2[C@@H]1O[C@H](CSCC[C@H](N)C(=O)O)[C@@H](O)[C@H]1O [Compound 22] | >10 |  | > 500 µM | 
COc1ccc(Cc2nn3c([C@@H](CCCc4ccccc4)[C@@H](C)O)nc(C)c3c(=O)[nH]2)cc1OC [Compound 23] |  | not a significant inhibitory effect |  | 
COc1ccc(-c2ocnc2C(=O)NCCCn2cncn2)cc1Cl [Compound 24] |  | not a significant inhibitory effect | > 500 µM | 
COc1ccc(-c2cc(C(F)(F)F)n3ncc(C(=O)Nc4sc5c(c4C(N)=O)CCCC5)c3n2)cc1 [Compound 26] | 7 | exerted an inhibitory effect | 68.9 ± 10 µM | IC50 (SARS-CoV-2 M^pro): 57.6 ± 4.1 µM
Cc1ccc(-c2cc(C(F)(F)F)n3ncc(C(=O)Nc4sc5c(c4C(N)=O)CCCC5)c3n2)cc1 [Compound 27] | 5 | exerted an inhibitory effect | 67.9 ± 16.5 µM | IC50 (SARS-CoV-2 M^pro): 46.2 ± 7.7 µM
NC(=O)c1c(NC(=O)c2cnn3c(C(F)F)cc(-c4ccccc4)nc23)sc2c1CCCC2 [Compound 28] | >5 |  | > 250 µM | 
CCC(C)NC(=O)c1ccccc1NC(=O)c1cccc(S(=O)(=O)Nc2ccccc2)c1 (centres unmarked) [Compound 29] |  | not a significant inhibitory effect | > 500 µM | Activity towards HCoV-229E (HCoV-229E): retained activity; EC50 (HCoV-229E): 15.7 ± 4.8 µM; Activity towards HCoV-OC43 (HCoV-OC43): retained activity; CC50 at 72 h [3]: > 250 µM
CCC(C)NC(=O)c1ccccc1NC(=O)c1ccc(C)c(S(=O)(=O)Nc2cccc(NC(=O)c3ccccc3)c2)c1 (centres unmarked) [Compound 30] | >10 |  | > 500 µM | 
COc1ccc(C(=O)Nc2ccccc2C(=O)N[C@H](C(=O)Nc2ccccc2)C(C)C)cc1 [Compound 31, (S)-2-(4-Methoxybenzamido)-N-(3-methyl-1-oxo-1-(phenylamino)butan-2-yl)benzamide] | >5 |  | > 250 µM | IC50 (SARS-CoV-2 M^pro): 43.7 ± 9.2 µM; Fold increase of inhibitory potency against M^pro compared to parental hit 7 (SARS-CoV-2 M^pro; compared to hit 7): > 2 fold
COc1ccc(C(=O)Nc2ccccc2C(=O)N[C@H](C(=O)N[C@H](CO)C(C)C)C(C)C)cc1 [Compound 32, N-((S)-1-(((S)-1-Hydroxy-3-methylbutan-2-yl)amino)-3-methyl-1-oxobutan-2-yl)-2-(4-methoxybenzamido)benzamide] | >8 |  | > 250 µM | IC50 (SARS-CoV-2 M^pro): > 200 µM
COc1ccc(C(=O)Nc2ccccc2C(=O)N[C@H](C(=O)NC2CCCCC2)C(C)C)cc1 [Compound 33, (S)-N-(1-(Cyclohexylamino)-3-methyl-1-oxobutan-2-yl)-2-(4-methoxybenzamido)benzamide] | >7 |  | > 250 µM | IC50 (SARS-CoV-2 M^pro): 26.7 ± 7.3 µM
CCNC(=O)[C@@H](NC(=O)c1ccccc1NC(=O)c1ccc(OC)cc1)C(C)C [Compound 34, (S)-N-(1-(Ethylamino)-3-methyl-1-oxobutan-2-yl)-2-(4-methoxybenzamido)benzamide] | >5 |  | > 250 µM | 
CC(C)[C@H](NC(=O)c1ccccc1NC(=O)c1ccc(O)cc1)C(=O)N[C@H](CO)C(C)C [Compound 35, N-((S)-1-(((S)-1-Hydroxy-3-methylbutan-2-yl)amino)-3-methyl-1-oxobutan-2-yl)-2-(4-hydroxybenzamido)benzamide] | >10 |  | > 250 µM | IC50 (SARS-CoV-2 M^pro): 19 ± 8.4 µM
CCC(CC)COC(=O)[C@H](C)N[P@](=O)(OC[C@H]1O[C@@](C#N)(c2ccc3c(N)ncnn23)[C@H](O)[C@@H]1O)Oc1ccccc1 [RMV, remdesivir, reference compound] |  |  | > 250 µM | EC50 (HCoV-229E): 0.09 ± 0.03 µM

— paper PMC9172283 (Antiviral Research, 2022)
